One series is filed under the species Homo sapiens. The experiment in a line: Selectivity for human adenosine A2A receptor over human adenosine A1 receptor.
For a further series, the target named is Adenosine receptor A2a (Homo sapiens, UniProt P29274). The experiment in a line: Antagonist activity at human adenosine A2A receptor. In kind it is functional.
The nature of series [1]: AUC in rat catalepsy model at 3.0 mg/kg, po. It counts as ADME, organism-based. The arrangement: dose 3 mg/kg, route oral. As to conditions: in vivo.
Series [2] concerns Rattus norvegicus. The experiment in a line: Effect on rat catalepsy model at 1 mg/kg, po after 1 hr. In kind it is functional.
Series [3] has as its system Rattus norvegicus. The experiment in a line: Effect on rat catalepsy model at 1 mg/kg, po after 4 hrs. It counts as functional.
For series [4], the system named is Rattus norvegicus. The experiment in a line: Effect on rat catalepsy model at 3 mg/kg, po after 1 hr. In kind it is functional.
In series [5] the test system is Rattus norvegicus. The experiment in a line: Effect on rat catalepsy model at 3 mg/kg, po after 4 hrs. It counts as functional.

Chain of Adenosine receptor A2a (P29274 whole entry): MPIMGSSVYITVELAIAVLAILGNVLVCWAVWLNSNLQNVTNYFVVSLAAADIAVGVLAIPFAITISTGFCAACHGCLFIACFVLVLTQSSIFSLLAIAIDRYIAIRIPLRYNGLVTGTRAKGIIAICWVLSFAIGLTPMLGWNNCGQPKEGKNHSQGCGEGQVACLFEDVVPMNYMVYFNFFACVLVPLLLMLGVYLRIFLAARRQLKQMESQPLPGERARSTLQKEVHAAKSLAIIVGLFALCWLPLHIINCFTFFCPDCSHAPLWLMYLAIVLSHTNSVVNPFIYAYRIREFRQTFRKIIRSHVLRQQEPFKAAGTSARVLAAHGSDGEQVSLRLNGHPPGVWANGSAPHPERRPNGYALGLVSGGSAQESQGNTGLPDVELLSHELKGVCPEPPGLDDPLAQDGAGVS

In the case of `Cc1ccc(N2CCN(CCn3cnc4c3nc(N)n3nc(-c5ccco5)nc43)CC2)nc1`, in the series listed under Homo sapiens, the Selectivity ratio was found to be 162. Besides, the Ki on Adenosine receptor A2a was found to be 1 nM.

Compound `COCCOc1ccc(N2CCN(CCn3cnc4c3nc(N)n3nc(-c5ccco5)nc43)CC2)cc1` gave an AUC in series [1] of 524 ng·h/mL. Besides, the Selectivity ratio in the series filed under Homo sapiens is 669. This compound also came in with a Ki at Adenosine receptor A2a of 0.9 nM. Further, the Activity in the series on Rattus norvegicus [2] was found to be 55%; in the series with Rattus norvegicus [3] it was 50%; in the series with Rattus norvegicus [4], 80%; with Rattus norvegicus [5] it was 50%.

Regarding `Nc1nc2c(ncn2CCN2CCN(c3ccccc3)CC2)c2nc(-c3ccco3)nn12`, the Selectivity ratio in the series listed under Homo sapiens worked out at 182. This compound also came in with a Ki at Adenosine receptor A2a of 1.7 nM.

On to `Nc1nc2c(ncn2Cc2ccccc2)c2nc(-c3ccco3)nn12`, for which the Selectivity ratio in the series listed under Homo sapiens amounted to 17. In addition, on Adenosine receptor A2a, the affinity corresponds to a Ki of 1.5 nM.

In the case of `COCCOc1ccc(N2CCN(CCn3cnc4c3nc(N)n3nc(-c5cccc[n+]5[O-])nc43)CC2)cc1`, the Selectivity ratio in the series listed under Homo sapiens is 17. For the same compound, the Ki on Adenosine receptor A2a came out at 89.7 nM.

For the compound `Nc1nc2c(ncn2CCN2CCC(c3ccc(F)cc3)CC2)c2nc(-c3ccco3)nn12`, in the series listed under Homo sapiens, the Selectivity ratio amounted to 196. The same compound gave a Ki at Adenosine receptor A2a of 0.9 nM.

Take `COCCOc1ccc(N2CCN(CCn3cnc4c3nc(N)n3nc(-c5ccco5)nc43)CC2)c(C(F)(F)F)c1`: the Selectivity ratio in the series listed under Homo sapiens was 218. Also, the inhibition constant Ki at Adenosine receptor A2a was found to be 0.4 nM.

`COCCOc1ccc(N2CCN(CCn3cnc4c3nc(N)n3nc(-c5ccccn5)nc43)CC2)cc1`: the Selectivity ratio in the series listed under Homo sapiens was 108. The compound further gave a Ki on Adenosine receptor A2a of 12.6 nM.

Take `Nc1nc2c(ncn2CCN2CCOCC2)c2nc(-c3ccco3)nn12`: in the series listed under Homo sapiens, the Selectivity ratio amounted to 37. On Adenosine receptor A2a, this compound yielded a Ki of 6.3 nM.

In the case of `COCCOc1ccc(N2CCN(CCn3cnc4c3nc(N)n3nc(-c5ccccc5C)nc43)CC2)cc1`, the Selectivity ratio in the series listed under Homo sapiens stood at 76. In addition, affinity on Adenosine receptor A2a was put at a Ki of 20.5 nM.

Take `COCCOc1ccc(N2CCN(CCn3cnc4c3nc(N)n3nc(-c5ccccc5F)nc43)CC2)cc1`: the Selectivity ratio in the series listed under Homo sapiens is 15. This compound came in with a Ki on Adenosine receptor A2a of 9.3 nM.

On to `Nc1nc2c(ncn2CCN2CCN(c3ncc(F)cn3)CC2)c2nc(-c3ccco3)nn12`, for which the Selectivity ratio in the series listed under Homo sapiens was 378. The Ki at Adenosine receptor A2a is 1.4 nM.

For the compound `Nc1nc2c(ncn2CCN2CCN(c3nccs3)CC2)c2nc(-c3ccco3)nn12`, the Selectivity ratio in the series listed under Homo sapiens turned out to be 138. The same compound came in with a Ki on Adenosine receptor A2a of 1.7 nM.

Take `Nc1nc2c(ncn2CCc2ccccc2)c2nc(-c3ccco3)nn12`: the Selectivity ratio in the series listed under Homo sapiens came to 33. Besides, the Ki at Adenosine receptor A2a was found to be 4.1 nM.

For the compound `Nc1nc2c(ncn2Cc2ccccc2Br)c2nc(-c3ccco3)nn12`, the Selectivity ratio in the series listed under Homo sapiens came out at 7. In addition, affinity on Adenosine receptor A2a was put at a Ki of 4.6 nM.

As to `COCCOc1ccc(N2CCN(CCn3cnc4c3nc(N)n3nc(-c5ccccc5)nc43)CC2)cc1`, in the series filed under Homo sapiens, the Selectivity ratio turned out to be 91. The compound further showed a Ki at Adenosine receptor A2a of 3.7 nM.

Regarding `COc1ccc(N2CCN(CCn3cnc4c3nc(N)n3nc(-c5ccco5)nc43)CC2)cc1`, the Selectivity ratio in the series filed under Homo sapiens was determined as 1700. The Ki at Adenosine receptor A2a turned out to be 0.1 nM.

For `Nc1nc2c(ncn2CCN2CCN(c3ccc(Cl)cc3F)CC2)c2nc(-c3ccco3)nn12`, the Selectivity ratio in the series filed under Homo sapiens amounted to 403. Moreover, at Adenosine receptor A2a, the affinity corresponds to a Ki of 0.3 nM.

As to `COCCOc1ccc(N2CCN(CCn3cnc4c3nc(N)n3nc(-c5ccccc5C(F)(F)F)nc43)CC2)cc1`, the Selectivity ratio in the series listed under Homo sapiens worked out at 181. On Adenosine receptor A2a, this compound showed a Ki of 10 nM.

On to `Nc1nc2c(ncn2CCN2CCN(c3cccc(Cl)c3)CC2)c2nc(-c3ccco3)nn12`, for which the Selectivity ratio in the series filed under Homo sapiens was 371. This compound also registered a Ki at Adenosine receptor A2a of 0.4 nM.

Consider `Nc1nc2c(ncn2Cc2ccccc2C(F)(F)F)c2nc(-c3ccco3)nn12`, for which the Selectivity ratio in the series filed under Homo sapiens was found to be 30. Besides, affinity at Adenosine receptor A2a was put at a Ki of 4.6 nM.

`COCCOc1ccc(N2CCN(CCn3cnc4c3nc(N)n3nc(-c5ccco5)nc43)CC2)c(F)c1`: the Selectivity ratio in the series filed under Homo sapiens amounted to 517. At Adenosine receptor A2a, this compound came in with a Ki of 0.8 nM.

Consider `COCCOc1ccc(C2CCN(CCn3cnc4c3nc(N)n3nc(-c5ccco5)nc43)CC2)cc1`, for which the Selectivity ratio in the series listed under Homo sapiens amounted to 519. Moreover, the affinity on Adenosine receptor A2a corresponds to a Ki of 0.7 nM.

As for `Nc1nc2c(ncn2CCN2CCN(c3ccc(Cl)cn3)CC2)c2nc(-c3ccco3)nn12`, in the series listed under Homo sapiens, the Selectivity ratio was found to be 333. The same compound returned an inhibitory constant (Ki) on Adenosine receptor A2a of 0.9 nM.

`Nc1nc2c(ncn2CCN2CCN(c3ccc(F)cc3F)CC2)c2nc(-c3ccco3)nn12`: in the series filed under Homo sapiens, the Selectivity ratio was 88. For the same compound, at Adenosine receptor A2a, the inhibitory constant (Ki) amounted to 0.7 nM.

Turning to `Nc1nc2c(ncn2Cc2ccccc2Cl)c2nc(-c3ccco3)nn12`, the Selectivity ratio in the series filed under Homo sapiens was found to be 9. The compound also gave a Ki at Adenosine receptor A2a of 1.7 nM.

On to `CCCn1cnc2c1nc(N)n1nc(-c3ccco3)nc21`, for which the Selectivity ratio in the series filed under Homo sapiens worked out at 50. On Adenosine receptor A2a, this compound had a Ki of 5.9 nM.

On to `COCCOc1ccc(N2CCN(CCn3cnc4c3nc(N)n3nc(-c5cccc(F)c5)nc43)CC2)cc1`, for which the Selectivity ratio in the series filed under Homo sapiens was determined as 83. This compound also registered a Ki on Adenosine receptor A2a of 2 nM.

One may read the Ki as a dissociation constant, usually derived from enzyme kinetics or from competition with a known ligand. High values mean lower affinity, low ones higher affinity. As a reminder, the AUC is the area under the concentration-time curve, a measure of exposure. Lower therefore signals low exposure.

The record behind these values is ChEMBL document CHEMBL1139098, “3H-[1,2,4]-Triazolo[5,1-i]purin-5-amine derivatives as adenosine A2A antagonists” (Bioorg Med Chem Lett, 2007).
